# pKi: −log10 of the molar value.
# Target: T1, 5-hydroxytryptamine receptor 1A (Homo sapiens, UniProt P08908)
# T1 sequence (P08908 whole entry): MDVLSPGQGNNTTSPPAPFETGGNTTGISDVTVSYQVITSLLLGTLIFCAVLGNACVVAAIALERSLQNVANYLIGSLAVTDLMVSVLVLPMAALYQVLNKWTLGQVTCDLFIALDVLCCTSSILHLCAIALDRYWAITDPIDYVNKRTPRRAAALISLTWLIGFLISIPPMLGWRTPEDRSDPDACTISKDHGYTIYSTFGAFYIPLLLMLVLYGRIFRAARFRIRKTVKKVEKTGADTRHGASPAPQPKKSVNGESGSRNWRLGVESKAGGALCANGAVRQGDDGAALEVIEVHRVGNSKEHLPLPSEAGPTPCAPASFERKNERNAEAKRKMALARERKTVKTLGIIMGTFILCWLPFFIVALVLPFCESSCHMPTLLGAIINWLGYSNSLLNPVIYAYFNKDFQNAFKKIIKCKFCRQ
# Experiment: biochemical
# Description: Displacement of [3H]8-OH-DPAT from human recombinant 5HT1A receptor expressed in HEK293 cells after 120 mins
row,Compound,pKi
1,COc1ccccc1N1CCN(CCCN2C(=O)c3cccc4c(N)ccc(c34)C2=O)CC1,6.94
2,COc1ccccc1N1CCN(CCNS(=O)(=O)c2cccc3c(N(C)C)cccc23)CC1,7.14
3,COc1ccccc1N1CCN(CCCCNS(=O)(=O)c2cccc3c(N(C)C)cccc23)CC1,6.82
4,COc1ccccc1N1CCN(CCCCCNS(=O)(=O)c2cccc3c(N(C)C)cccc23)CC1,7.27
5,COc1ccccc1N1CCN(CCN2C(=O)c3cccc4c(N)ccc(c34)C2=O)CC1,7.36

# Now those with a higher pKi, led by results:
row,pKi,Compound
1,7.82,COc1ccccc1N1CCN(CCN2C(=O)c3ccc(N(C)C)cc3C2=O)CC1
2,9.33,COc1ccccc1N1CCN(CCCN2C(=O)c3ccc(N(C)C)cc3C2=O)CC1
3,8.11,COc1ccccc1N1CCN(CCCCCN2C(=O)c3ccc(N(C)C)cc3C2=O)CC1
4,8.17,COc1ccccc1N1CCN(CCCCN2C(=O)c3cccc4c(N)ccc(c34)C2=O)CC1
5,7.54,COc1ccccc1N1CCN(CCCNS(=O)(=O)c2cccc3c(N(C)C)cccc23)CC1
6,9.17,COc1ccccc1N1CCN(CCCCCN2C(=O)c3cccc4c(N)ccc(c34)C2=O)CC1
7,9.30,COc1ccccc1N1CCN(CCCCN2C(=O)c3ccc(N(C)C)cc3C2=O)CC1
